The text below walks through data of ChEMBL document CHEMBL1201862, “PubChem BioAssay data set” (2004).

The source made the active and inactive calls. Where only a bound is given, the exact number is not on record here.

The nature of test [1]: cytotoxicity in HMLE control line with eGFP shRNA, dose response, counter-screen for HMLE_sh_ECad selective toxicity project, cell-based, HMLE_sh_eGFP, luminescence (AID 463074).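 Note: HMLE human mammary epithelial cells expressing control shRNA against eGFP.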 The class given is functional, Homo sapiens.
Test [2] is described as follows: Luminescence Cell-Based Dose Retest to Confirm Inhibitors of Cancer Stem Cells. [Related pubchem assays (depositor defined):AID2717, AID2721]. The class given is functional. The conditions noted are these: Homo sapiens.
Test [3] is described as follows: Luminescence Cell-Based Dose Confirmation HTS to Identify Activators of 5'UTR Stem-Loop Driven Alpha-Synuclein mRNA Translation in H4 Neuroglioblastoma Cells. [Related pubchem assays: 1829 (Project Summary), 1814 (Primary HTS)]. It is filed as functional.
The subject of test [4] is A-375. Briefly: MITF: Counter assay: A375 proliferation Measured in Cell-Based System Using Plate Reader - 2084-03_Inhibitor_Dose_DryPowder_Activity. [Related pubchem assays (depositor defined):AID488944]. It is filed as functional. The settings on record: Homo sapiens.
Test [5] relates to H4. Briefly: Luminescence Cell-Based Dose Response HTS to Identify Activators of 5'UTR Stem-Loop Driven Prion Protein mRNA Translation in H4 Neuroglioblastoma Cells. [Related pubchem assays: 1829 (Project Summary), 1814 (Primary HTS)]. The class given is functional. The conditions noted are these: Homo sapiens.
Test [6] relates to A-375. In words: A375 melanoma cell viability reduction, dose response, counter-screen for MITF modulator project, cherry-pick samples, set 2 (AID 540335). The class given is functional, cell-based. The settings on record: Homo sapiens.
A short description of test [7]: Luminescence Cell-Based Dose Response HTS to Identify Activators of Luciferase Translation or Activity in H4 […] Cells. [Related pubchem assays: 1829 (Project Summary), 1814 (Primary HTS)]. The class given is functional.
Test [8] can be described thus: cells.
Test [9] concerns Vero. Briefly: cells. It is filed as functional, cell-based. The settings on record: Chlorocebus sabaeus.
Test [10] in a line: HEp-2 cell cytotoxicity, dose response, cytotoxicity control for RSV inhibitor project, HTS (AID 2410). The class given is functional. The settings on record: human respiratory syncytial virus.
The nature of test [11]: HEK293 cell cytotoxicity, dose response, cytotoxicity control, plate reader, cherry-picked samples (AID 743446). The class given is functional, cell-based.
Test [12] is described as follows: Luminescence Cell-Based Dose Confirmation HTS to Identify Inhibitors of Platelet Dense Granule Release. [Related pubchem assays: 1663 (Primary HTS), 1678 (Summary of Project)]. The class given is functional.
For test [13], the system named is BJ. Briefly: cells. It is filed as functional, cell-based. The settings on record: Homo sapiens.
The target of test [14] is Photoreceptor-specific nuclear receptor (Homo sapiens, UniProt Q9Y5X4). The class given is functional, cell-based.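 Note: CHO-S cells with Gal4-NCOR and VP16-NR2E3 two-hybrid luciferase reporter.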
Test [15] deals with Paired box protein Pax-8 (Homo sapiens, UniProt Q06710). In words: inhibitors of PAX8-driven TPO luciferase reporter, dose response, RMG-I cells, cherry-pick (AID 687027).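 Note: luciferase reporter driven by Pax8 target thyroperoxidase promoter measured by SteadyGlo luminescence.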 The class given is functional, cell-based.
The target of test [16] is Luciferin 4-monooxygenase (Photinus pyralis, UniProt P08659). Briefly: firefly luciferase enzyme inhibitors, dose response, biochemical, luminescence (AID 1891).
Test [17] in a line: Shn3 3'UTR reporter inhibitors, dose response, cell-based, Clone20 osteoblasts, firefly luciferase, cherry-picked (AID 624132).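 Note: firefly luciferase luminescence from reporter carrying the Shn3 3'UTR in osteoblasts.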 The class given is functional.
Test [18] is described as follows: HepG2 cell cytotoxicity, dose response, cytotoxicity control for Shn3 inhibitor project, CellTiter-Glo, cherry-picked (AID 624134). It is filed as functional, cell-based.
Test [19] in a line: non-specific cell cytotoxicity, dose response, cytotoxicity control for PAX8 inhibitor project, plate reader, dry powder samples (AID 743021). It is filed as functional, cell-based.
Test [20] in a line: cytotoxicity in HEK-293T NF-kB-Luc cells, dose response, cytotoxicity control for B/T-cell NF-kB inhibitor project, cell-based, uHTS hits (AID 489019).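 Note: IC50 reflects cytotoxicity as loss of cell viability.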 The class given is functional.
The nature of test [21]: inhibitors of clade B AD8 Env fusion, dose response, cell-based, cherry-pick (AID 652062).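 Note: luciferase signal from cell-cell fusion driven by HIV-1 clade B AD8 Env; potency is for inhibitors of fusion seen as a drop in luminescence.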 It is filed as functional.
A short description of test [22]: inhibitors of HIV Env-driven cell fusion, dose response, cherry-pick (AID 652057). It is filed as functional, cell-based.
Test [23] in a line: MC4R antagonists, dose response, counter-screen for LGR2 antagonist project, cell-based, plate reader, cherry pick (AID 743444).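 Note: transfected HEK 293 cells stimulated with alpha-MSH peptide; potency of inhibitors of the alpha-MSH evoked signal.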 It is filed as functional.
The subject of test [24] is BJ. In words: cytotoxicity toward BJ-TERT-LT-ST fibroblasts, dose response, cell-based, RAS-independent, luminescence (AID 1935).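 Note: BJ fibroblasts immortalized with TERT plus LT and ST oncogenes.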 The conditions noted are these: Homo sapiens. The class given is functional.
Test [25] has as its system BJ. In words: cytotoxicity toward BJ-TERT fibroblasts, dose response, cell-based, RAS-independent, luminescence (AID 1933). The settings on record: Homo sapiens. It is filed as functional.
Test [26] can be described thus: off-target signal loss in HeLa-CEM21 co-culture – HeLa F-luc CTL cells, cherry-picked, counter-screen for HIV-1 Env fusion inhibitor project, dose response (AID 652040).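 Note: potency for signal decrease marking cytotoxic or nonspecific inhibition.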 It is filed as functional, cell-based.
For test [27], the system named is Jurkat. In words: antigen receptor-induced NF-kB inhibitors, dose response, Jurkat, luciferase reporter, luminescence, B- and T-cell (AID 489004).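 Note: NF-kB luciferase reporter Jurkat cells stimulated with PMA plus ionomycin.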 The class given is functional, cell-based. The settings on record: Homo sapiens.
Test [28] is described as follows: LGR2 antagonists, dose response, cell-based, HEK293, CRE-luciferase reporter, cherry pick, set 2 (AID 743343).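 Note: transfected cells were stimulated with diluted bursicon conditioned medium after compound addition.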 It is filed as functional.
Test [29] deals with INS1. Briefly: beta cell apoptosis inhibitors, cytokine rescue, dose response, luminescence, retest (AID 449756).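 Note: cell death triggered by IL-1 beta plus TNF-alpha plus IFN-gamma mixture; protective hits raise ATP signal compared with cytokine alone wells.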 The class given is functional, cell-based. The conditions noted are these: Rattus norvegicus.
Test [30] in a line: HepG2 cell cytotoxicity, dose response, cytotoxicity control, plate reader, cherry-pick, antagonist series (AID 743416). It is filed as functional, cell-based.
Test [31] in a line: ZM109 Env clade C HIV-1 fusion inhibitors, dose response, HeLa effector, CEM target cells, luciferase, cherry-pick (AID 652058). It is filed as functional, cell-based.
In test [32] the test system is BJ. Briefly: cytotoxicity toward Ras-transformed BJeLR fibroblasts, dose response, cell-based, alamar blue fluorescence, cherrypicked samples (AID 2631).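 Note: confirmatory dose-response assay in RAS-dependent BJ fibroblasts engineered with TERT, LT and ST, with cytotoxicity read by fluorescence.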 It is filed as functional. The conditions noted are these: Homo sapiens.
Test [33] is described as follows: CEM21 lymphoblast cell cytotoxicity, dose response, cytotoxicity control for viral fusion inhibitor project, CellTiter-Glo luminescence, cherry-picked (AID 652042).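 Note: potency for signal decrease meaning cytotoxicity.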 It is filed as functional, cell-based.
Test [34] can be described thus: cytotoxicity toward DRD oncogenic fibroblasts, dose response, cell-based, non-viral oncogenic, luminescence (AID 1934). The class given is functional. The settings on record: Homo sapiens.
A short description of test [35]: A549 cell cytotoxicity, dose response, cytotoxicity control, plate reader, cherry-pick, antagonist series (AID 743412). It is filed as functional, cell-based.
In test [36] the target is Heat shock protein HSP 90-alpha (Homo sapiens, UniProt P07900). It is filed as functional, organism-based.

Sequence of Luciferin 4-monooxygenase (P08659 whole entry): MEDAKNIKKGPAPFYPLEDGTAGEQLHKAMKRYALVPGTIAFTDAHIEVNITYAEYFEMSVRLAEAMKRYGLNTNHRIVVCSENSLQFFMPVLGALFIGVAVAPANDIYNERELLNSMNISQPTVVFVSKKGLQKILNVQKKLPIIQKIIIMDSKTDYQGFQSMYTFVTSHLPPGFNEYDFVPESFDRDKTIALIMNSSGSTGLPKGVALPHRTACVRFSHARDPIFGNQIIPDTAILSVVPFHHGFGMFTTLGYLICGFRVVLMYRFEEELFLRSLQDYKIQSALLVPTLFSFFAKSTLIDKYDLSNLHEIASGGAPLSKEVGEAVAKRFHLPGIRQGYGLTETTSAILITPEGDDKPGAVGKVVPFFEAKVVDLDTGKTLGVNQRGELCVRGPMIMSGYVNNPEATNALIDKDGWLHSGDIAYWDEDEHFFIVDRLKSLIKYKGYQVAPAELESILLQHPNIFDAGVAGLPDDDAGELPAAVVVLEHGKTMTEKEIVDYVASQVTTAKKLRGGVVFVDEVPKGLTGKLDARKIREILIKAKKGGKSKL
Sequence of Photoreceptor-specific nuclear receptor (Q9Y5X4 whole entry, the tested form may be a part): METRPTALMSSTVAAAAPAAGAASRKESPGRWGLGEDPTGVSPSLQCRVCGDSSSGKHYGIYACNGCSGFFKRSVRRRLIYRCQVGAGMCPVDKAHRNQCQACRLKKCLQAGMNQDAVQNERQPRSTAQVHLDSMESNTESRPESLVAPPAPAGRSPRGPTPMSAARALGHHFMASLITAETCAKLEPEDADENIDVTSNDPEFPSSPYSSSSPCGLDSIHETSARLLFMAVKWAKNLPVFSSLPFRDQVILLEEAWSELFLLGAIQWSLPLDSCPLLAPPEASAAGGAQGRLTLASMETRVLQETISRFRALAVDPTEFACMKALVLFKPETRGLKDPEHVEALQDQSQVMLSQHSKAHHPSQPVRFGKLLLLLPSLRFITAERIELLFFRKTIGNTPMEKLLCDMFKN
Sequence of Paired box protein Pax-8 (Q06710 whole entry): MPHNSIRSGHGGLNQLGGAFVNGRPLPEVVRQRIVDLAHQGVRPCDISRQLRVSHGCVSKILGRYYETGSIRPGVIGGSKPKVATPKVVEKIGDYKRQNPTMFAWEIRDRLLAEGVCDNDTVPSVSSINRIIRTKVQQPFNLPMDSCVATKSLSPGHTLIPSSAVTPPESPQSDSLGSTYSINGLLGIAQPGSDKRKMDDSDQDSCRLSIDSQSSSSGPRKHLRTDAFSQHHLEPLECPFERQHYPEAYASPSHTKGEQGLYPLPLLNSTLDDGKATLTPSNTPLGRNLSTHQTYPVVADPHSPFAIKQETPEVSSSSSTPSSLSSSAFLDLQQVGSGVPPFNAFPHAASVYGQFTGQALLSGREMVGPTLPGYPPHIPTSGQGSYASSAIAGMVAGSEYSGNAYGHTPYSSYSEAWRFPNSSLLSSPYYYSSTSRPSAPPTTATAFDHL

With `O=C(c1cc(-c2ccc(O)cc2)on1)N1CCN(c2ccccc2)CC1`, the AC50 in [1] was 23100 nM (active); in test [2], 2890 nM (active).

Turning to `Cc1cnn(C(S)=NCCc2ccccc2)c1`, the EC50 in test [3] is 27300 nM (active); in test [5], > 120000 nM (not active); in [7], 25400 nM (active). Moreover, the AC50 in test [4] and in test [6] was > 35000 nM (active) each time.

Regarding `Cc1cccc(NC(=O)C(C)Sc2nc3ccccc3c(=O)n2CCCN2CCOCC2)c1` (stereo unspecified), the IC50 in test [8] was 26800 nM (active); in test [9] it was 23400 nM (active). Moreover, in [10], the CC50 was 30800 nM (active).

For the molecule `COc1ccccc1C(=O)Nc1nc2ccccc2[nH]1`, the AC50 in [11] is 2330 nM (active); in [15], 2040 nM (active); in test [17], 868 nM (active); in [18], 6570 nM (active); in test [19] it was 1790 nM (active); in [21], 1410 nM (active). Moreover, the AC50 is 879 nM (active) in test [22]; 253 nM (active) in test [23]; 2570 nM (active) in test [26]; 217 nM (active) in test [28]; 1690 nM (active) in [29]; 6260 nM (active) in test [30]. Further, the AC50 in test [31] was 6080 nM (active); in [33], 1710 nM (active); in [35] it was 1290 nM (active); in [36], 555 nM (active). The EC50 in test [12] is 196 nM (active); in test [13], 607 nM (inconclusive); in test [16], 159 nM (active); in test [24], 1830 nM (inconclusive); in test [25] it was 802 nM (inconclusive); in test [32], > 133000 nM (inactive). Moreover, the EC50 in [34] is 734 nM (active). Moreover, the IC50 in test [14] was 3250 nM (active); in test [20], > 80000 nM (inactive); in test [27], 570 nM (active).
